Patent US20190255048A1, “PYRIMIDINE COMPOUND OR SALT THEREOF IN APPLICATION FOR MANUFACTURING PHARMACEUTICAL PRODUCT FOR PREVENTING AND/OR TREATING FLT3-RELATED DISEASE OR DISORDER” (SHENZHEN HAIBIN PHARMACEUTICAL CO., LTD, priority 2016, published 2019)

Columns and labels:
[1] = system: mouse BaF3-FLT3-ITD-D835Y (stably expressing FLT3/ITD D835Y mutant activated kinase); assay: Effects on proliferation of cells (Cell Titer-Glo), BaF3-FLT3-ITD-D835Y; type: cell-based; conditions: incubated for 72 hours
From the text: (§1) This example tested the effects of the compounds of the present invention (the compound shown in Formula (I), hydrochloride salt, phosphate, mesylate, lactate, acetate, sulphate, and hydrobromide thereof prepared in EXAMPLES 1-8 respectively) on proliferation of tumor cells, and further evaluated the inhibitory effects of the compounds on proliferation of tumor cells and selectivity of the compounds in inhibiting proliferation of tumor cells.
(9) mouse BaF3-FLT3-ITD-D835Y (stably expressing FLT3/ITD D835Y mutant activated kinase);
(§2) The compounds at different concentration (0.000508 μM, 0.00152 μM, 0.00457 μM, 0.0137 μM, 0.0411 μM, 0.123 μM, 0.370 μM, 1.11 μM, 3.33 μM, 10 μM in DMSO) were added to the above-mentioned cells respectively, incubated for 72 hours, Cell Titer-Glo (Promega, United States of America) Chemiluminescence Kit was used to quantify ATP in living cells to detect the number of living cells, the results were shown as Table 3

[2] = system: mouse TEL-FLT3-BaF3 (stably expressing FLT3 kinase); assay: Effects on proliferation of cells (Cell Titer-Glo), TEL-FLT3-BaF3; type: cell-based; conditions: TEL-FLT3-BaF3, incubated for 72 hours
From the text: as §1
(8) mouse TEL-FLT3-BaF3 (stably expressing FLT3 kinase);
as §2

FLT3 kinase = biological target: T1, FLT3 kinase (Homo sapiens, UniProt P36888); assay: Activity of inhibiting FLT3 kinase (fluorescein labeled peptide kinase assay); type: biochemical; conditions: in vitro kinase assay, 28° C.
T1 sequence (P36888 27-993): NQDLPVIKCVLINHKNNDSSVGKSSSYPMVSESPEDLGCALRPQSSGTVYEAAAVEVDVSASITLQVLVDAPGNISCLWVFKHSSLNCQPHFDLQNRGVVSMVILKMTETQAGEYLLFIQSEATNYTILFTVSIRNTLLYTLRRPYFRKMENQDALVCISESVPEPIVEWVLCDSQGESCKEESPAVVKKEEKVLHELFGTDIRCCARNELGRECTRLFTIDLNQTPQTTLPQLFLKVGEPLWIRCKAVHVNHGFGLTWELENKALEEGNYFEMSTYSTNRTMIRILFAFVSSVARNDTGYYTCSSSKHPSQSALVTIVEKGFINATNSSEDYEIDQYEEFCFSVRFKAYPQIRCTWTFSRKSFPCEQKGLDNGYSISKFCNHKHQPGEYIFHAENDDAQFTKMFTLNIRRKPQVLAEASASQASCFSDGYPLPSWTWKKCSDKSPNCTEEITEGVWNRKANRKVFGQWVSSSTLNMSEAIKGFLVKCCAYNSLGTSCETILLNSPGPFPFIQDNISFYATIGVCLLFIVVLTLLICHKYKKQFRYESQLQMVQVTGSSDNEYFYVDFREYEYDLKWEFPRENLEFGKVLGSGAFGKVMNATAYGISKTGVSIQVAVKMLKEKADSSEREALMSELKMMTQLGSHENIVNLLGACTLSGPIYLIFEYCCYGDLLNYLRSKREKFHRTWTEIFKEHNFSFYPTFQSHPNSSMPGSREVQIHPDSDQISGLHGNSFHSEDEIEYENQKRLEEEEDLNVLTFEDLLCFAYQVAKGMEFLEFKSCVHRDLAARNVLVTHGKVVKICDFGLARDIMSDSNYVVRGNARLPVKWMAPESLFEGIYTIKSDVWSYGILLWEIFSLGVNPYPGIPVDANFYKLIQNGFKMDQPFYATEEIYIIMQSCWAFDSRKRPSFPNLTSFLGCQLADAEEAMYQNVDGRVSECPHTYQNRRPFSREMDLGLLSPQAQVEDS
Experimental: Activity of Inhibiting FLT3 Kinase
1. Preparation of 1 × Kinase Buffer and Termination Buffer:
(1) MnCl2-free 1× kinase buffer: 50 mM HEPES, pH 7.5, 0.0015% Brij-35, 10 mM MgCl2, 2 mM DTT;
(2) Termination buffer: 100 mM HEPES, pH 7.5, 0.015% Brij-35, 0.2% Coating Reagent #3, 50 mM EDTA.
2. Preparation of compounds for testing kinase: the compounds are diluted continuously.
(1) the compound was diluted to 50 times the maximum final concentration with 100% DMSO. […] of the solution containing the compound at this concentration was transferred to one hole of 96-well plate;
(2)10 concentrations of compounds were prepared by diluting 20 mL original solution with 60 mL DMSO;
(3) […] solution of 100% DMSO was added into two empty holes as compound-free control and enzyme-free control; (4) a transitional plate was prepared, 10 mL compounds at different concentrations were transferred from the original plate to the transitional plate respectively, 90 mL 1× kinase buffer was added, and then mixed under oscillation for 10 minutes;
(5) preparation of an experimental plate: 5 mL solution containing compounds was transferred from the hole of the transitional plate of the 96-well plate to the corresponding hole of 384-well plate.
(1) Preparation of 2.5× enzyme solution: enzyme was added to the 1× kinase buffer;
(2) Preparation of 2.5× peptide solution: a fluorescein labeled peptide and ATP were added to the 1× kinase buffer;
(3) 10 mL 2.5× enzyme solution was added to an experimental 384-well plate containing the compound solution with a concentration of 10% containing 5 mL DMSO and incubated at room temperature for 10 minutes;
(4) 10 mL 2.5× peptide solution was added to an experimental 384-well plate;
(5) kinase reaction and termination: Incubation was carried out at 28° C. for certain time, 25 mL termination buffer was added to terminate the reaction.
Data was read and collected.
(1) detected data was copied and converted
(2) data was converted to inhibitory rate
Inhibitory rate=(Maximum Value−Sample Value)/(Maximum Value−Minimum Value)*100;
wherein “Maximum Value” is the value of DMSO control; “Minimum Value” is the value of kinase-free control hole.
(3) the data was input an analysis software to obtain IC50 value.

[3] = system: human acute monocytic leukemia cell strain MV4-11 (expressing FLT3/ITD mutant gene); assay: Effects on proliferation of tumor cells (Cell Titer-Glo), MV4-11; type: cell-based; conditions: MV4-11, incubated for 72 hours
From the text: as §1
(1) human acute monocytic leukemia cell strain MV4-11 (expressing FLT3/ITD mutant gene);
as §2

[4] = system: human acute myeloid leukemia cell strain MOLM-13 (expressing FLT3/ITD mutant gene and wild-type FLT3 gene); assay: Effects on proliferation of tumor cells (Cell Titer-Glo), MOLM-13; type: cell-based; conditions: MOLM-13, incubated for 72 hours
From the text: as §1
(2) human acute myeloid leukemia cell strain MOLM-13 (expressing FLT3/ITD mutant gene and wild-type FLT3 gene);
as §2

[5] = system: human acute myeloid leukemia cell strain MOLM-14 (expressing FLT3/ITD mutant gene and wild-type FLT3 gene); assay: Effects on proliferation of tumor cells (Cell Titer-Glo), MOLM-14; type: cell-based; conditions: MOLM-14, incubated for 72 hours
From the text: as §1
(3) human acute myeloid leukemia cell strain MOLM-14 (expressing FLT3/ITD mutant gene and wild-type FLT3 gene);
as §2

[6] = system: human acute myeloid leukemia cell strain U937 (expressing wild-type FLT3 gene); assay: Effects on proliferation of tumor cells (Cell Titer-Glo), U937; type: cell-based; conditions: U937, incubated for 72 hours
From the text: as §1
(5) human acute myeloid leukemia cell strain U937 (expressing wild-type FLT3 gene);
as §2

[7] = system: mouse TEL-BaF3-FLT3/ITD (stably expressing FLT3/ITD mutant activated kinase); assay: Effects on proliferation of cells (Cell Titer-Glo), TEL-BaF3-FLT3/ITD; type: cell-based; conditions: incubated for 72 hours
From the text: as §1
(6) mouse TEL-BaF3-FLT3/ITD (stably expressing FLT3/ITD mutant activated kinase);
as §2

[8] = system: mouse BaF3-FLT3-ITD-F691L (stably expressing FLT3/ITD F691L mutant activated kinase); assay: Effects on proliferation of cells (Cell Titer-Glo), BaF3-FLT3-ITD-F691L; type: cell-based; conditions: incubated for 72 hours
From the text: as §1
(10) mouse BaF3-FLT3-ITD-F691L (stably expressing FLT3/ITD F691L mutant activated kinase).
as §2

[9] = system: mouse TEL-BaF3-FLT3-D835Y (stably expressing FLT3D835Y mutant activated kinase); assay: Effects on proliferation of cells (Cell Titer-Glo), TEL-BaF3-FLT3-D835Y; type: cell-based; conditions: incubated for 72 hours
From the text: as §1
(7) mouse TEL-BaF3-FLT3-D835Y (stably expressing FLT3D835Y mutant activated kinase);
as §2

[10] = system: human acute myeloid leukemia cell strain OCI-AML-3 (expressing FLT3A680V mutant gene); assay: Effects on proliferation of tumor cells (Cell Titer-Glo), OCI-AML-3; type: cell-based; conditions: OCI-AML-3, incubated for 72 hours
From the text: as §1
(4) human acute myeloid leukemia cell strain OCI-AML-3 (expressing FLT3A680V mutant gene);
as §2

[11] = system: subcutaneous xenograft tumor of human MV-4-11; assay: Therapeutic effects on subcutaneous xenograft tumor of human MV-4-11 in nude mice; type: in vivo, BALB/cA-nude mice; conditions: MV-4-11 subcutaneous xenograft, 15 mg/kg intraperitoneal injection, 3 times a day for 21 days
Experimental: Preparation of test samples: all samples were prepared with 5% anhydrous ethanol, 5% Cremophor EL and 90% physiological saline.
Animals: BALB/cA-nude mice, 6-7 weeks, female ♀ purchased from Shanghai Lingchang Biotechnology Co., Ltd. Production license number was SC×K(Hu)2013-0018; animal certification number was 2013001810589.
Feeding environment: SPF Level.
Experiment steps: human acute myeloid leukemia cells MV-4-11 were inoculated subcutaneously in nude mice, after the tumor grows to 80-150 mm^3, animals were randomly divided into groups with 6 mice each group. The dosage was 15 mg/kg, the drugs were administrated by intraperitoneal injection, 3 times a day for 21 days. The volume of tumor was measured, the weight of mouse was weighed and the data were recorded.
The formula for calculating the volume of tumor (V) was: […]
Wherein a and b represented length and width respectively.
T/C (%)=(T−T0)/(C−C0)×100
Wherein T and C were the volume of tumor when the experiment was completed; T0 and C0 were the volume of tumor when the experiment was started.
The inhibited rate of tumor was calculated, the results were shown as Table 4.

Row | SMILES | IC50 [1] | IC50 [2] | IC50 (FLT3 kinase) | IC50 [3] | IC50 [4] | IC50 [5] | IC50 [6] | IC50 [7] | IC50 [8] | IC50 [9] | IC50 [10] | Inhibited Rate of Tumor (%) [11]
1 | Cl.Nc1sc(-c2c(F)cccc2F)nc1C(=O)Nc1cncnc1OCC1CCNCC1 [Hydrochloride salt of compound of Formula (I)] | 0.32 µM | 0.03 µM | 15 nM | 0.13 µM | 0.12 µM | 0.08 µM | 6.21 µM | 0.02 µM | 0.45 µM | 0.21 µM | 0.05 µM | 86%
2 | CC(O)C(=O)O.Nc1sc(-c2c(F)cccc2F)nc1C(=O)Nc1cncnc1OCC1CCNCC1 [Lactate of compound of Formula (I)] | 0.34 µM | 0.06 µM | 25 nM | 0.34 µM | 0.28 µM | 0.31 µM | 9.05 µM | 0.04 µM | 0.64 µM | 0.13 µM | 0.08 µM | 71%
3 | CS(=O)(=O)O.Nc1sc(-c2c(F)cccc2F)nc1C(=O)Nc1cncnc1OCC1CCNCC1 [Mesylate of compound of Formula (I)] | 0.55 µM | 0.05 µM | 28 nM | 0.43 µM | 0.45 µM | 0.13 µM | 7.42 µM | 0.02 µM | 0.77 µM | 0.31 µM | 0.06 µM | 74%
4 | Nc1sc(-c2c(F)cccc2F)nc1C(=O)Nc1cncnc1OCC1CCNCC1.O=S(=O)(O)O [Sulphate of compound of Formula (I)] | 0.23 µM | 0.05 µM | 28 nM | 0.23 µM | 0.23 µM | 0.22 µM | 3.56 µM | 0.04 µM | 0.56 µM | 0.22 µM | 0.21 µM | 68%
